Here are results for five compounds from US20090111786A1, “Compounds that Prevent Macrophage Apoptosis and Uses Thereof” (priority 2004, published 2009).

The test system of assay [1] is WT and LXR−/− macrophages. Kind of assay: Cycloheximide-induced macrophage apoptosis, DNA fragmentation. The assay is classed as cell-based, mouse. The conditions noted are these: for apoptotic process induced by CHX (DNA fragmentation): preincubation 24 h.
Another assay relates to macrophages. Kind of assay: Cycloheximide-induced general caspase activity, fluorimetric. The assay is classed as cell-based, mouse. As to conditions: macrophages treated with CHX 10 μg/ml, 5 h.
Assay [2] deals with bone marrow-derived macrophages (BMDMs). Kind of assay: Macrophage apoptosis on M-CSF withdrawal, sub-G1 DNA content by flow cytometry (PI). The class given is cell-based, mouse. The conditions noted are these: for increase in cells with sub-G1 DNA content (apoptosis-induced DNA fragmentation): BMDMs pre-incubated with agonist, then cultured without M-CSF.
The subject of assay [3] is AIM (Apoptosis Inhibitor expressed by Macrophages) mRNA. Kind of assay: AIM mRNA expression by Northern blotting. The conditions noted are these: differentiated macrophages; T1317: at 12 to 24 h of stimulation; EC 10 μM.
In assay [4] the test system is LPS-dependent gene expression in macrophages. Kind of assay: Microarray analysis of LPS (TLR4)-induced apoptotic gene program. The conditions noted are these: 9cRA alone.
Procedure: Microarray analysis: In one embodiment, large numbers of genes were assayed for relative expression levels using one or more of an Affymetrix U74A array and a Codelink Uniset 1 mouse array. Total RNA was isolated and purified using Trizol reagent (Invitrogen Life Technologies, Carlsbad, Calif.) and RNeasy columns (Qiagen, Valencia, Calif.). cRNA was generated from 10 μg total RNA using Superscript (Invitrogen) and the High Yield RNA transcription labeling kit (Enzo Biochem. Inc., Farmingdale, N.Y.). Duplicate samples of fragmented cRNA were hybridized to Affymetrix U74A arrays or Codelink Uniset 1 mouse arrays according to manufacture's instruction. Data was analyzed with Microarray Suite (Affymetrix, Santa Clara, Calif.) and Genespring software (Silicongenetics, Redwood City, Calif.).
An additional series of microarray experiments was performed to evaluate the influence of LXR activation on regulation of the apoptotic program induced by engagement of TLR4 (FIG. 4). Macrophages were incubated with GW3965 or vehicle for 16 h and then treated with LPS for 6 hours.
Macrophages were incubated with the LXR agonist GW3965 (1 μM) or vehicle for 16 h prior to treatment with LPS (100 ng/ml) for 6 h. Total RNA was subjected to microarray analysis using Codelink Mouse Uniset 1 microarrays.

With `C[C@@H]1C[C@@H]([C@H](O)CC2CC(=O)NC(=O)C2)C(=O)[C@@H](C)C1` [CHX, cycloheximide], the DNA fragmentation entry in assay [1] (macrophages treated with CHX 10 μg/ml, 6 h) is given as “increased”. Besides, in the assay on macrophages, the caspase activation result is “increased”.
As to `O=S(=O)(c1ccccc1)N(CC(F)(F)F)c1ccc(C(O)(C(F)(F)F)C(F)(F)F)cc1` [T1317], in assay [2], the “increase in cells with sub-G1 DNA content (apoptosis-induced DNA fragmentation)” value (from here on “increase in cells”) is “attenuated”. In addition, the “apoptotic process induced by CHX (DNA fragmentation)” value in assay [1] (LXR-deficient macrophages) is recorded as “not”; in assay [1] ([…]), “attenuated”. The “AIM mRNA levels” value in assay [3] was “highly induced”.
Turning to `C[C@H](CC[C@@H]1OC1(C)C)[C@H]1CC[C@H]2[C@@H]3CC=C4C[C@@H](O)CC[C@]4(C)[C@H]3CC[C@]12C` [EC, 24(S),25-epoxycholesterol], in assay [2], the “increase in cells” value is “attenuated”. In assay [3], the “AIM mRNA levels” value is “induced”.
Regarding `O=C(O)Cc1cccc(OCCCN(Cc2cccc(C(F)(F)F)c2Cl)CC(c2ccccc2)c2ccccc2)c1` [GW3965], in assay [2], the “increase in cells” value is “attenuated”.
Consider `CC1=C(/C=C/C(C)=C\C=C\C(C)=C\C(=O)O)C(C)(C)CCC1` [9cRA, 9-cis retinoic acid], for which the “effect on the action of the LXR-specific agonists on sub-G1 content” value in assay [2] (9cRA combined with T1317, GW3965 or EC, M-CSF withdrawal) is on record as “markedly enhanced”. Besides, the “increase in cells” value in assay [2] is reported as “little effect”. For the same compound, the “inhibitory activity on LPS-dependent gene expression” value in assay [4] is “very little inhibitory activity”.
